Measured values as given in ChEMBL document CHEMBL3046003, “Synthesis and antifungal activities of novel 5-amino-6-arylamino-1H-pyrazolo[3,4-d]pyrimidin-4(5H)-one derivatives” (2008).

Key:
Assay type in all cases: functional
Conditions in all cases: read-out: GI
[1] = system: Sclerotinia sclerotiorum; assay: Antifungal activity against Sclerotinia sclerotiorum assessed as growth inhibition at 10 mg/L
[2] = system: Botrytis cinerea; assay: Antifungal activity against Botryotinia fuckeliana assessed as growth inhibition at 10 mg/L
[3] = system: Sclerotinia sclerotiorum; assay: Antifungal activity against Sclerotinia sclerotiorum assessed as growth inhibition at 50 mg/L
[4] = system: Fusarium graminearum; assay: Antifungal activity against Fusarium graminearum assessed as growth inhibition at 50 mg/L
[5] = system: Pyricularia oryzae; assay: Antifungal activity against Magnaporthe oryzae assessed as growth inhibition at 50 mg/L
[6] = system: Botrytis cinerea; assay: Antifungal activity against Botryotinia fuckeliana assessed as growth inhibition at 50 mg/L

CSc1nn(-c2ccccc2)c2nc3n(-c4cccc(Cl)c4)cnn3c(=O)c12
inhibition of growth at 10 µg/mL [1]: 82%
inhibition of growth at 10 µg/mL [2]: 71%
inhibition of growth at 50 µg/mL [3]: 100%
inhibition of growth at 50 µg/mL [4]: 74%
inhibition of growth at 50 µg/mL [5]: 57%
inhibition of growth at 50 µg/mL [6]: 99%

CSc1nn(-c2ccccc2)c2nc3n(-c4cccc(C)c4)cnn3c(=O)c12
inhibition of growth at 10 µg/mL [1]: 73%
inhibition of growth at 10 µg/mL [2]: 74%
inhibition of growth at 50 µg/mL [3]: 98%
inhibition of growth at 50 µg/mL [4]: 50%
inhibition of growth at 50 µg/mL [5]: 70%
inhibition of growth at 50 µg/mL [6]: 97%

CSc1nn(-c2ccccc2)c2nc(Nc3ccc(F)cc3)n(N)c(=O)c12
inhibition of growth at 10 µg/mL [1]: 72%
inhibition of growth at 10 µg/mL [2]: 9%
inhibition of growth at 50 µg/mL [3]: 94%
inhibition of growth at 50 µg/mL [4]: 20%
inhibition of growth at 50 µg/mL [5]: 43%
inhibition of growth at 50 µg/mL [6]: 45%

CSc1nn(-c2ccccc2)c2nc(Nc3ccccc3F)n(N)c(=O)c12
inhibition of growth at 10 µg/mL [1]: 73%
inhibition of growth at 10 µg/mL [2]: 69%
inhibition of growth at 50 µg/mL [3]: 97%
inhibition of growth at 50 µg/mL [4]: 51%
inhibition of growth at 50 µg/mL [5]: 62%
inhibition of growth at 50 µg/mL [6]: 93%

CSc1nn(-c2ccccc2)c2nc(Nc3cccc(F)c3)n(N)c(=O)c12
inhibition of growth at 10 µg/mL [1]: 75%
inhibition of growth at 10 µg/mL [2]: 56%
inhibition of growth at 50 µg/mL [3]: 96%
inhibition of growth at 50 µg/mL [4]: 43%
inhibition of growth at 50 µg/mL [5]: 43%
inhibition of growth at 50 µg/mL [6]: 87%

Nn1c(Nc2ccc(F)cc2)nc2c(c(SCc3ccccc3)nn2-c2ccccc2)c1=O
inhibition of growth at 10 µg/mL [1]: 52%
inhibition of growth at 10 µg/mL [2]: 12%
inhibition of growth at 50 µg/mL [3]: 83%
inhibition of growth at 50 µg/mL [4]: 34%
inhibition of growth at 50 µg/mL [5]: 29%
inhibition of growth at 50 µg/mL [6]: 55%

Nn1c(Nc2ccccc2F)nc2c(c(SCc3ccccc3)nn2-c2ccccc2)c1=O
inhibition of growth at 10 µg/mL [1]: 33%
inhibition of growth at 10 µg/mL [2]: 18%
inhibition of growth at 50 µg/mL [3]: 71%
inhibition of growth at 50 µg/mL [4]: 40%
inhibition of growth at 50 µg/mL [5]: 14%
inhibition of growth at 50 µg/mL [6]: 64%

Nn1c(Nc2cccc(F)c2)nc2c(c(SCc3ccccc3)nn2-c2ccccc2)c1=O
inhibition of growth at 10 µg/mL [1]: 40%
inhibition of growth at 10 µg/mL [2]: 20%
inhibition of growth at 50 µg/mL [3]: 82%
inhibition of growth at 50 µg/mL [4]: 46%
inhibition of growth at 50 µg/mL [5]: 14%
inhibition of growth at 50 µg/mL [6]: 69%

CSc1nn(-c2ccccc2)c2nc(Nc3ccccc3)n(N)c(=O)c12
inhibition of growth at 10 µg/mL [1]: 51%
inhibition of growth at 10 µg/mL [2]: 3%
inhibition of growth at 50 µg/mL [3]: 84%
inhibition of growth at 50 µg/mL [4]: 14%
inhibition of growth at 50 µg/mL [5]: 36%
inhibition of growth at 50 µg/mL [6]: 13%

Nn1c(Nc2ccccc2)nc2c(c(SCc3ccccc3)nn2-c2ccccc2)c1=O
inhibition of growth at 10 µg/mL [1]: 31%
inhibition of growth at 10 µg/mL [2]: 12%
inhibition of growth at 50 µg/mL [3]: 72%
inhibition of growth at 50 µg/mL [4]: 29%
inhibition of growth at 50 µg/mL [5]: 50%
inhibition of growth at 50 µg/mL [6]: 60%

CSc1nn(-c2ccccc2)c2nc(Nc3cccc(Cl)c3)n(N)c(=O)c12
inhibition of growth at 10 µg/mL [1]: 76%
inhibition of growth at 10 µg/mL [2]: 73%
inhibition of growth at 50 µg/mL [3]: 98%
inhibition of growth at 50 µg/mL [4]: 57%
inhibition of growth at 50 µg/mL [5]: 96%
inhibition of growth at 50 µg/mL [6]: 99%

CSc1nn(-c2ccccc2)c2nc(Nc3cccc(C)c3)n(N)c(=O)c12
inhibition of growth at 10 µg/mL [1]: 52%
inhibition of growth at 10 µg/mL [2]: 36%
inhibition of growth at 50 µg/mL [3]: 86%
inhibition of growth at 50 µg/mL [4]: 46%
inhibition of growth at 50 µg/mL [5]: 14%
inhibition of growth at 50 µg/mL [6]: 71%

CSc1nn(-c2ccccc2)c2nc3n(-c4ccc(F)cc4)cnn3c(=O)c12
inhibition of growth at 10 µg/mL [1]: 70%
inhibition of growth at 10 µg/mL [2]: 45%
inhibition of growth at 50 µg/mL [3]: 93%
inhibition of growth at 50 µg/mL [4]: 49%
inhibition of growth at 50 µg/mL [5]: 9%
inhibition of growth at 50 µg/mL [6]: 71%

CSc1nn(-c2ccccc2)c2nc3n(-c4ccccc4F)cnn3c(=O)c12
inhibition of growth at 10 µg/mL [1]: 19%
inhibition of growth at 10 µg/mL [2]: 31%
inhibition of growth at 50 µg/mL [3]: 50%
inhibition of growth at 50 µg/mL [4]: 26%
inhibition of growth at 50 µg/mL [5]: 5%
inhibition of growth at 50 µg/mL [6]: 60%

CSc1nn(-c2ccccc2)c2nc3n(-c4cccc(F)c4)cnn3c(=O)c12
inhibition of growth at 10 µg/mL [1]: 83%
inhibition of growth at 10 µg/mL [2]: 70%
inhibition of growth at 50 µg/mL [3]: 100%
inhibition of growth at 50 µg/mL [4]: 74%
inhibition of growth at 50 µg/mL [5]: 29%
inhibition of growth at 50 µg/mL [6]: 91%

O=c1c2c(SCc3ccccc3)nn(-c3ccccc3)c2nc2n(-c3ccc(F)cc3)cnn12
inhibition of growth at 10 µg/mL [1]: 32%
inhibition of growth at 10 µg/mL [2]: 30%
inhibition of growth at 50 µg/mL [3]: 75%
inhibition of growth at 50 µg/mL [4]: 37%
inhibition of growth at 50 µg/mL [5]: 43%
inhibition of growth at 50 µg/mL [6]: 67%

O=c1c2c(SCc3ccccc3)nn(-c3ccccc3)c2nc2n(-c3ccccc3F)cnn12
inhibition of growth at 10 µg/mL [1]: 75%
inhibition of growth at 10 µg/mL [2]: 27%
inhibition of growth at 50 µg/mL [3]: 96%
inhibition of growth at 50 µg/mL [4]: 37%
inhibition of growth at 50 µg/mL [5]: 14%
inhibition of growth at 50 µg/mL [6]: 60%

O=c1c2c(SCc3ccccc3)nn(-c3ccccc3)c2nc2n(-c3cccc(F)c3)cnn12
inhibition of growth at 10 µg/mL [1]: 5%
inhibition of growth at 10 µg/mL [2]: 5%
inhibition of growth at 50 µg/mL [3]: 29%
inhibition of growth at 50 µg/mL [4]: 34%
inhibition of growth at 50 µg/mL [5]: 0%
inhibition of growth at 50 µg/mL [6]: 29%

CSc1nn(-c2ccccc2)c2nc3n(-c4ccccc4)cnn3c(=O)c12
inhibition of growth at 10 µg/mL [1]: 83%
inhibition of growth at 10 µg/mL [2]: 70%
inhibition of growth at 50 µg/mL [3]: 100%
inhibition of growth at 50 µg/mL [4]: 66%
inhibition of growth at 50 µg/mL [5]: 80%
inhibition of growth at 50 µg/mL [6]: 99%

O=c1c2c(SCc3ccccc3)nn(-c3ccccc3)c2nc2n(-c3ccccc3)cnn12
inhibition of growth at 10 µg/mL [1]: 67%
inhibition of growth at 10 µg/mL [2]: 49%
inhibition of growth at 50 µg/mL [3]: 93%
inhibition of growth at 50 µg/mL [4]: 60%
inhibition of growth at 50 µg/mL [5]: 29%
inhibition of growth at 50 µg/mL [6]: 73%

c1ccc2[nH]c(-c3cscn3)nc2c1 [THIABENDAZOLE]
inhibition of growth at 50 µg/mL [3]: 100%
inhibition of growth at 50 µg/mL [4]: 100%
inhibition of growth at 50 µg/mL [5]: 87%
inhibition of growth at 50 µg/mL [6]: 100%
